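Dose response: 5 concentrations. Exposure: 48 h. Format: 96-well plates. Endpoint: linear interpolation; highest concentration if not reached. TGI: total growth inhibition.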
Tests used:
Test in all cases: inhibition of tumour cell growth, NCI panel, 48 h
[1] = tested on: 786-0 renal
[2] = tested on: A498 renal
[3] = tested on: A549 NSCLC
[4] = tested on: ACHN renal
[5] = tested on: BT-549 breast
[6] = tested on: CAKI-1 renal
[7] = tested on: CCRF-CEM leukemia
[8] = tested on: COLO 205 colon
[9] = tested on: DU-145 prostate
[10] = tested on: EKVX NSCLC
[11] = tested on: HCC-2998 colon
[12] = tested on: HCT-116 colon
[13] = tested on: HCT-15 colon
[14] = tested on: HL-60(TB) leukemia
[15] = tested on: HOP-62 NSCLC
[16] = tested on: HOP-92 NSCLC
[17] = tested on: HS 578T breast
[18] = tested on: HT29 colon
[19] = tested on: IGROV1 ovarian
[20] = tested on: K-562 leukemia
[21] = tested on: KM12 colon
[22] = tested on: LOX IMVI melanoma
[23] = tested on: M14 melanoma
[24] = tested on: MALME-3M melanoma
[25] = tested on: MCF7 breast
[26] = tested on: MDA-MB-231 breast
[27] = tested on: MDA-MB-435
[28] = tested on: MDA-N
[29] = tested on: MOLT-4 leukemia
[30] = tested on: NCI-H23 lung
[31] = tested on: NCI-H460 lung
[32] = tested on: NCI-H522 lung
[33] = tested on: NCI/ADR-RES ovarian
[34] = tested on: OVCAR-3 ovarian
[35] = tested on: OVCAR-4 ovarian
[36] = tested on: OVCAR-5 ovarian
[37] = tested on: OVCAR-8 ovarian
[38] = tested on: PC-3 prostate
[39] = tested on: RPMI-8226 leukemia
[40] = tested on: RXF 393 renal
[41] = tested on: SF-268 CNS
[42] = tested on: SF-295 CNS
[43] = tested on: SF-539 CNS
[44] = tested on: SK-MEL-2 melanoma
[45] = tested on: SK-MEL-28 melanoma
[46] = tested on: SK-MEL-5 melanoma
[47] = tested on: SK-OV-3 ovarian
[48] = tested on: SN12C renal
[49] = tested on: SNB-19 CNS
[50] = tested on: SNB-75 CNS
[51] = tested on: SW-620 colon
[52] = tested on: T-47D breast
[53] = tested on: TK-10 renal
[54] = tested on: U251 CNS
[55] = tested on: UACC-257 melanoma
[56] = tested on: UACC-62 melanoma
[57] = tested on: UO-31 renal
[58] = tested on: NCI-H226 lung
[59] = tested on: SR leukemia

Cc1[nH]c2nc3c(ncn3COCCO)c(=O)n2c1C(c1ccccc1)(c1ccccc1)c1ccccc1
TGI [1]: 32.2 µM
TGI [2]: 33.3 µM
TGI [3]: 40.5 µM
TGI [4]: 35.5 µM
TGI [5]: 2.22 µM
TGI [6]: > 100 µM
TGI [7]: > 52.9 µM
TGI [8]: 31 µM
TGI [9]: 26.2 µM
TGI [10]: 41.8 µM
TGI [11]: 26.4 µM
TGI [12]: 29.3 µM
TGI [13]: > 100 µM
TGI [14]: 44.4 µM
TGI [15]: 44.3 µM
TGI [16]: 31.8 µM
TGI [17]: > 91.2 µM
TGI [18]: 24.2 µM
TGI [19]: 28.4 µM
TGI [20]: 27.3 µM
TGI [21]: 28.5 µM
TGI [22]: 27.8 µM
TGI [23]: 33.3 µM
TGI [24]: 33.6 µM
TGI [25]: 23.1 µM
TGI [26]: 28.3 µM
TGI [27]: 24.3 µM
TGI [28]: 29.2 µM
TGI [29]: 24.3 µM
TGI [30]: 23.1 µM
TGI [31]: 30.9 µM
TGI [32]: 28.2 µM
TGI [33]: > 100 µM
TGI [34]: 15.4 µM
TGI [35]: 30.4 µM
TGI [36]: 32.7 µM
TGI [37]: 32.4 µM
TGI [38]: 26 µM
TGI [39]: 45.5 µM
TGI [40]: 26.2 µM
TGI [41]: 33.1 µM
TGI [42]: 34.2 µM
TGI [43]: 19.2 µM
TGI [44]: 29.8 µM
TGI [45]: 43.5 µM
TGI [46]: 29.4 µM
TGI [47]: 32.8 µM
TGI [48]: 33 µM
TGI [49]: 28.6 µM
TGI [50]: 26.7 µM
TGI [51]: > 56.4 µM
TGI [52]: 29.7 µM
TGI [53]: 30.8 µM
TGI [54]: 28 µM
TGI [55]: 27.4 µM
TGI [56]: 24 µM
TGI [57]: > 76.1 µM

N#CCC1C2CC3C(C2=O)C13 (stereo not given)
TGI [1]: > 100 µM
TGI [2]: > 100 µM
TGI [3]: > 100 µM
TGI [4]: > 100 µM
TGI [6]: > 100 µM
TGI [7]: > 100 µM
TGI [8]: > 100 µM
TGI [9]: > 100 µM
TGI [10]: > 100 µM
TGI [11]: > 100 µM
TGI [12]: > 100 µM
TGI [13]: > 100 µM
TGI [15]: > 100 µM
TGI [16]: > 100 µM
TGI [17]: > 100 µM
TGI [18]: > 100 µM
TGI [19]: > 100 µM
TGI [20]: > 100 µM
TGI [21]: > 100 µM
TGI [22]: > 100 µM
TGI [23]: > 100 µM
TGI [24]: > 100 µM
TGI [25]: > 100 µM
TGI [26]: > 100 µM
TGI [27]: > 100 µM
TGI [28]: > 100 µM
TGI [29]: > 100 µM
TGI [58]: > 100 µM
TGI [30]: > 100 µM
TGI [31]: > 100 µM
TGI [32]: > 100 µM
TGI [33]: > 100 µM
TGI [34]: > 100 µM
TGI [35]: > 100 µM
TGI [36]: > 100 µM
TGI [37]: > 100 µM
TGI [38]: > 100 µM
TGI [39]: > 100 µM
TGI [40]: > 100 µM
TGI [41]: > 100 µM
TGI [42]: > 100 µM
TGI [43]: > 100 µM
TGI [44]: > 100 µM
TGI [45]: > 100 µM
TGI [46]: > 100 µM
TGI [47]: > 100 µM
TGI [48]: > 100 µM
TGI [49]: > 100 µM
TGI [50]: > 100 µM
TGI [59]: > 100 µM
TGI [51]: > 100 µM
TGI [52]: > 100 µM
TGI [53]: > 100 µM
TGI [54]: > 100 µM
TGI [55]: > 100 µM
TGI [56]: > 100 µM
TGI [57]: > 100 µM

CC(=O)OCC1OC(OC(C)=O)C(Nc2ncc(-c3ccc(C)cc3)s2)C(OC(C)=O)C1OC(C)=O (stereo not given)
TGI [1]: 40.1 µM
TGI [3]: 47.9 µM
TGI [4]: 27.7 µM
TGI [5]: 36.7 µM
TGI [6]: 31.2 µM
TGI [7]: 55 µM
TGI [8]: 38 µM
TGI [9]: > 100 µM
TGI [10]: 27.6 µM
TGI [11]: 57.7 µM
TGI [12]: 32.1 µM
TGI [13]: 60 µM
TGI [15]: 42.2 µM
TGI [17]: 69.5 µM
TGI [18]: 56.1 µM
TGI [19]: 36.4 µM
TGI [20]: 65.8 µM
TGI [22]: 32 µM
TGI [23]: 33.4 µM
TGI [24]: 41.5 µM
TGI [25]: 52.1 µM
TGI [26]: 49.8 µM
TGI [27]: 30.3 µM
TGI [28]: 35.3 µM
TGI [29]: 49.2 µM
TGI [58]: 50.4 µM
TGI [30]: 31.9 µM
TGI [31]: 40.7 µM
TGI [32]: 34.3 µM
TGI [33]: 76.8 µM
TGI [34]: 35.1 µM
TGI [35]: 35.4 µM
TGI [36]: > 100 µM
TGI [37]: 69.9 µM
TGI [38]: 45.3 µM
TGI [39]: 64.3 µM
TGI [40]: 29.6 µM
TGI [41]: 36.2 µM
TGI [42]: 76.3 µM
TGI [43]: 37.7 µM
TGI [44]: 59.7 µM
TGI [45]: 31.2 µM
TGI [46]: 29.2 µM
TGI [47]: > 100 µM
TGI [48]: 40.8 µM
TGI [49]: 52.9 µM
TGI [50]: 37.6 µM
TGI [59]: > 100 µM
TGI [51]: 45.4 µM
TGI [52]: 48.8 µM
TGI [53]: 32.9 µM
TGI [54]: 31.6 µM
TGI [55]: 49.1 µM
TGI [56]: 29 µM
TGI [57]: 27.9 µM

CC(CNC(=O)c1ccccc1)(CNC(=O)c1ccccc1)[N+](=O)[O-]
TGI [1]: > 100 µM
TGI [3]: > 100 µM
TGI [4]: > 100 µM
TGI [5]: > 100 µM
TGI [6]: > 100 µM
TGI [8]: > 100 µM
TGI [9]: > 100 µM
TGI [10]: > 100 µM
TGI [12]: > 100 µM
TGI [13]: > 100 µM
TGI [14]: > 100 µM
TGI [16]: > 100 µM
TGI [17]: > 100 µM
TGI [18]: > 100 µM
TGI [19]: > 100 µM
TGI [20]: > 100 µM
TGI [21]: > 100 µM
TGI [23]: > 100 µM
TGI [24]: > 100 µM
TGI [25]: > 100 µM
TGI [26]: > 100 µM
TGI [27]: > 100 µM
TGI [28]: > 100 µM
TGI [29]: > 100 µM
TGI [58]: > 100 µM
TGI [30]: > 100 µM
TGI [31]: > 100 µM
TGI [32]: > 100 µM
TGI [33]: > 100 µM
TGI [36]: > 100 µM
TGI [37]: > 100 µM
TGI [38]: > 100 µM
TGI [39]: > 100 µM
TGI [40]: > 100 µM
TGI [41]: > 100 µM
TGI [42]: > 100 µM
TGI [43]: > 100 µM
TGI [44]: > 100 µM
TGI [46]: > 100 µM
TGI [47]: > 100 µM
TGI [48]: > 100 µM
TGI [49]: 73.3 µM
TGI [50]: > 100 µM
TGI [59]: > 100 µM
TGI [51]: > 100 µM
TGI [52]: > 100 µM
TGI [53]: > 100 µM
TGI [54]: > 100 µM
TGI [55]: > 100 µM
TGI [56]: > 100 µM
TGI [57]: > 100 µM

Reference: PubChem BioAssay (NCI)
